Experimental data from patent US4994473A, “Pyridyl containing insecticides” (ICI Americas Inc., priority 1988, dated 1991).

System: Trichoplusia ni
Test: Cabbage looper larvae leaf-dip test
Assay type: in vivo, Cabbage Looper Trichoplusia ni (Hubner)
Details: second instar larvae, percent of test compound in solution, 3-5 days
Method: (§1) The compounds in Table I above were tested for insecticidal activity using the following testing procedures. LC50 values, based on the results of these tests and calculated according to dosage-mortality curves, are expressed in Table II.
Cabbage Looper Trichoplusia ni (Hubner)
The test compound was diluted in a 50--50 acetone-water solution Cotyledons of hyzini squash (Calabacita abobrinha), approximately 1×1.5 inches, were immersed in the test solutions for 2-3 seconds and placed on a wire screen to dry. The dried leaves were p1aced in petri dishes containing a moistened piece of filter paper and infested with 5 secondinstar cabbage looper larvae. The dishes were placed in a high humidity chamber. Mortality of the larvae was recorded 3-5 days later. Test concentrations ranged from 0.1% downward. The LC-50 value is expressed below in Table II under the heading "CL" in terms of percent of the test compound in solution.

Row | SMILES | LC50 CL [%]
1 | CC(C)C(=Nc1ccc(OCC(F)(F)F)nc1)OCc1cccc(Oc2ccccc2)n1 [Compound 45] | 0.00075
2 | Cc1cc(N=C(OCc2cccc(Oc3ccccc3)c2)C(C)C)no1 [Compound 8] | 0.1
3 | CC(C)C(=Nc1ccc(F)nc1)OCc1cccc(Oc2ccccc2)c1 [Compound 5] | 0.008
4 | CSc1ccc(N=C(OCc2cccc(Oc3ccccc3)c2)C(C)C)cn1 [Compound 38] | > 0.1
5 | CC(C)C(=Nc1ccc2nc(-c3ccccc3)oc2c1)OCc1cccc(Oc2ccccc2)c1 [Compound 28] | 0.04
6 | COC(=O)c1ccc(N=C(OCc2cccc(Oc3ccccc3)c2)C(C)C)o1 [Compound 14] | 0.01
7 | CC(C)C(=Nc1cncc(C(F)(F)F)c1)OCc1ccc(F)c(Oc2ccc(Cl)cc2)c1 [Compound 37] | > 0.1
8 | CC(C)C(=Nc1ccc(Cl)nc1)OCc1cccc(Oc2ccccc2)c1 [Compound 1, N-(6-Chloro-3-pyridyl)-0-(3-phenoxybenzyl)isobutyrylimidate] | 0.005
9 | CC(C)C(=Nc1ccc(Cl)nc1)SCc1cccc(Oc2ccc(F)cc2)c1 [Compound 29] | 0.025
10 | CC(C)C(=Nc1ccc(OCC(F)(F)F)nc1)OCc1cccc(Oc2ccc(F)cc2)c1 [Compound 43] | 0.00015
11 | COc1ccc(N=C(OCc2cccc(Oc3ccccc3)c2)C(C)C)cn1 [Compound 3] | 0.0075

System: Tetranychus urticae
Test: Two-spotted mite acaricidal test on pinto bean plants
Assay type: in vivo, two-spotted mite Tetranychus urticae (Koch)
Details: adults, percent concentration in solution, 5-7 days
Excerpt: Acaricidal Evaluation Test
The two-spotted mite (2SM) [Tetranychus urticae (Koch)]was employed in tests for miticides. The test procedure was as follows:
Pinto bean plants (Phaseolus sp.) approximately 10 cm tall, were transplanted into sandy loam soil in small cups and thoroughly infested with two-spotted mites of mixed ages and sexes. Twenty-four hours later the infested plants were inverted and dipped for 2-3 seconds in 50--50 acetone-water solutions of the test compound. Treated plants were held in the greenhouse, and 5-7 days later mortality was determined for both adult mites and the nymphs hatching from eggs which were on the plants at the time of treatment. Test concentrations ranged from 0.05% downward. The LC-50 value is expressed below in Table II under the headings "2SM-A" (i.e., adults) and "2SM-E" (i.e. eggs) in terms of percent concentration of the test compound in the solution.

Row | SMILES | LC50 2-SM A [%]
12 | CC(C)C(=Nc1ccc(OCC(F)(F)F)nc1)OCc1cccc(Oc2ccccc2)n1 [Compound 45] | 0.03
13 | Cc1cc(N=C(OCc2cccc(Oc3ccccc3)c2)C(C)C)no1 [Compound 8] | > 0.05
14 | CC(C)C(=Nc1ccc(F)nc1)OCc1cccc(Oc2ccccc2)c1 [Compound 5] | > 0.05
15 | CSc1ccc(N=C(OCc2cccc(Oc3ccccc3)c2)C(C)C)cn1 [Compound 38] | > 0.05
16 | CC(C)C(=Nc1ccc2nc(-c3ccccc3)oc2c1)OCc1cccc(Oc2ccccc2)c1 [Compound 28] | > 0.05
17 | COC(=O)c1ccc(N=C(OCc2cccc(Oc3ccccc3)c2)C(C)C)o1 [Compound 14] | > 0.05
18 | CC(C)C(=Nc1cncc(C(F)(F)F)c1)OCc1ccc(F)c(Oc2ccc(Cl)cc2)c1 [Compound 37] | > 0.05
19 | CC(C)C(=Nc1ccc(Cl)nc1)OCc1cccc(Oc2ccccc2)c1 [Compound 1, N-(6-Chloro-3-pyridyl)-0-(3-phenoxybenzyl)isobutyrylimidate] | > 0.05
20 | CC(C)C(=Nc1ccc(Cl)nc1)SCc1cccc(Oc2ccc(F)cc2)c1 [Compound 29] | > 0.05
21 | CC(C)C(=Nc1ccc(OCC(F)(F)F)nc1)OCc1cccc(Oc2ccc(F)cc2)c1 [Compound 43] | 0.006
22 | COc1ccc(N=C(OCc2cccc(Oc3ccccc3)c2)C(C)C)cn1 [Compound 3] | > 0.05

Same assay, conditions: eggs, percent concentration in solution, 5-7 days

Row | SMILES | LC50 2-SM E [%]
23 | CC(C)C(=Nc1ccc(OCC(F)(F)F)nc1)OCc1cccc(Oc2ccccc2)n1 [Compound 45] | 0.03
24 | Cc1cc(N=C(OCc2cccc(Oc3ccccc3)c2)C(C)C)no1 [Compound 8] | > 0.05
25 | CC(C)C(=Nc1ccc(F)nc1)OCc1cccc(Oc2ccccc2)c1 [Compound 5] | > 0.05
26 | CSc1ccc(N=C(OCc2cccc(Oc3ccccc3)c2)C(C)C)cn1 [Compound 38] | > 0.05
27 | CC(C)C(=Nc1ccc2nc(-c3ccccc3)oc2c1)OCc1cccc(Oc2ccccc2)c1 [Compound 28] | > 0.05
28 | COC(=O)c1ccc(N=C(OCc2cccc(Oc3ccccc3)c2)C(C)C)o1 [Compound 14] | > 0.05
29 | CC(C)C(=Nc1cncc(C(F)(F)F)c1)OCc1ccc(F)c(Oc2ccc(Cl)cc2)c1 [Compound 37] | > 0.05
30 | CC(C)C(=Nc1ccc(Cl)nc1)OCc1cccc(Oc2ccccc2)c1 [Compound 1, N-(6-Chloro-3-pyridyl)-0-(3-phenoxybenzyl)isobutyrylimidate] | > 0.05
31 | CC(C)C(=Nc1ccc(Cl)nc1)SCc1cccc(Oc2ccc(F)cc2)c1 [Compound 29] | > 0.05
32 | CC(C)C(=Nc1ccc(OCC(F)(F)F)nc1)OCc1cccc(Oc2ccc(F)cc2)c1 [Compound 43] | 0.006
33 | COc1ccc(N=C(OCc2cccc(Oc3ccccc3)c2)C(C)C)cn1 [Compound 3] | > 0.05

System: Heliothis virescens
Test: Tobacco budworm egg dip test
Assay type: in vivo, Tobacco Budworm Heliothis virescens (Fabricius)
Details: 2-day old eggs (TBW-E), percent of test compound in solution
Method: as §1
Tobacco Budworm Heliothis virescens (Fabricius)
Eggs: Paper towel patches of 2-day old eggs of the tobacco budworm were dipped in acetone solutions of the test compound and placed in petri dishes containing a portion of larval rearing medium. Treated eggs were maintained at 78° F. and mortality was recorded after all control eggs had hatched and the young larvae were feeding on the media. Test concentrations ranged from 0.1% downward. The LC-50 value is expressed below in Table II under the heading "TBW-E" in terms of percent of the test compound in the solution.

Row | SMILES | LC50 TBW [%]
34 | CC(C)C(=Nc1ccc(OCC(F)(F)F)nc1)OCc1cccc(Oc2ccccc2)n1 [Compound 45] | > 0.1
35 | Cc1cc(N=C(OCc2cccc(Oc3ccccc3)c2)C(C)C)no1 [Compound 8] | > 0.1
36 | CC(C)C(=Nc1ccc(F)nc1)OCc1cccc(Oc2ccccc2)c1 [Compound 5] | 0.09
37 | CSc1ccc(N=C(OCc2cccc(Oc3ccccc3)c2)C(C)C)cn1 [Compound 38] | > 0.1
38 | CC(C)C(=Nc1ccc2nc(-c3ccccc3)oc2c1)OCc1cccc(Oc2ccccc2)c1 [Compound 28] | > 0.1
39 | COC(=O)c1ccc(N=C(OCc2cccc(Oc3ccccc3)c2)C(C)C)o1 [Compound 14] | > 0.1
40 | CC(C)C(=Nc1cncc(C(F)(F)F)c1)OCc1ccc(F)c(Oc2ccc(Cl)cc2)c1 [Compound 37] | > 0.1
41 | CC(C)C(=Nc1ccc(Cl)nc1)OCc1cccc(Oc2ccccc2)c1 [Compound 1, N-(6-Chloro-3-pyridyl)-0-(3-phenoxybenzyl)isobutyrylimidate] | 0.04
42 | CC(C)C(=Nc1ccc(Cl)nc1)SCc1cccc(Oc2ccc(F)cc2)c1 [Compound 29] | > 0.1
43 | CC(C)C(=Nc1ccc(OCC(F)(F)F)nc1)OCc1cccc(Oc2ccc(F)cc2)c1 [Compound 43] | 0.02
44 | COc1ccc(N=C(OCc2cccc(Oc3ccccc3)c2)C(C)C)cn1 [Compound 3] | > 0.1

System: Aphis fabae
Test: Black bean aphid spray test on nasturtium plants, mortality after 48 hours
Assay type: in vivo, Black Bean Aphid Aphis fabae (Scop.)
Details: mixed ages, percent of test compound in sprayed solution
Method: as §1
Black Bean Aphid Aphis fabae (Scop.)
Nasturtium plants (Tropaeolum sp.) approximately 5 cm tall, were transplanted into sandy loam soil in small cups and infested with 25-50 black bean aphids of mixed ages. Twenty-four hours later they were sprayed to the point of runoff with 50--50 acetone-water solutions of the test compound. Treated plants were held in the greenhouse and mortality was recorded after 48 hours. Test concentrations ranged from 0.05% downward. The LC-50 value is expressed below in Table II under the heading "BA" in terms of percent of the test compound in the sprayed solution.

Row | SMILES | LC50 BA [%]
45 | CC(C)C(=Nc1ccc(OCC(F)(F)F)nc1)OCc1cccc(Oc2ccccc2)n1 [Compound 45] | 0.001
46 | Cc1cc(N=C(OCc2cccc(Oc3ccccc3)c2)C(C)C)no1 [Compound 8] | > 0.05
47 | CC(C)C(=Nc1ccc(F)nc1)OCc1cccc(Oc2ccccc2)c1 [Compound 5] | 0.003
48 | CSc1ccc(N=C(OCc2cccc(Oc3ccccc3)c2)C(C)C)cn1 [Compound 38] | 0.005
49 | CC(C)C(=Nc1ccc2nc(-c3ccccc3)oc2c1)OCc1cccc(Oc2ccccc2)c1 [Compound 28] | > 0.05
50 | COC(=O)c1ccc(N=C(OCc2cccc(Oc3ccccc3)c2)C(C)C)o1 [Compound 14] | > 0.05
51 | CC(C)C(=Nc1cncc(C(F)(F)F)c1)OCc1ccc(F)c(Oc2ccc(Cl)cc2)c1 [Compound 37] | > 0.05
52 | CC(C)C(=Nc1ccc(Cl)nc1)OCc1cccc(Oc2ccccc2)c1 [Compound 1, N-(6-Chloro-3-pyridyl)-0-(3-phenoxybenzyl)isobutyrylimidate] | 0.001
53 | CC(C)C(=Nc1ccc(Cl)nc1)SCc1cccc(Oc2ccc(F)cc2)c1 [Compound 29] | > 0.05
54 | CC(C)C(=Nc1ccc(OCC(F)(F)F)nc1)OCc1cccc(Oc2ccc(F)cc2)c1 [Compound 43] | 0.0003
55 | COc1ccc(N=C(OCc2cccc(Oc3ccccc3)c2)C(C)C)cn1 [Compound 3] | 0.003

System: Diabrotica undecimpunctata undecimpunctata
Test: Western spotted cucumber beetle larvae soil test
Assay type: in vivo
Details: Diabrotica eggs/larvae; ppm of the test compound in the soil
Method: as §1
Western Spotted Cucumber Beetle Larvae Diabrotica undecimpunctata undecimpunctata (Mannherheim)
Ten grams of moist potting soil was placed in a plastic cup. The test compound was dissolved in acetone. A 0.05 ml aliquot of the test sample, diluted to the desired concentration, was added to the soil. The cup was capped and the soil was mixed on a vortex mixer for approximately 15 seconds. An indentation was made on the surface of the soil and approximately 50 Diabrotica eggs were added. The eggs were covered with soil and maintained at room temperature (approximately 70° F. or 21° C.). Four days later a section of Romaine lettuce (Latuca sativa) leaf was placed in the treated cups. One week later the cups were examined for live larvae. Test concentrations ranged from 25 ppm downward. The LC-50 value is expressed below in Table II under the heading "Diabrotica" in terms of ppm of the test compound in the soil.

Row | SMILES | LC50 Diabrotica [ppm]
56 | CC(C)C(=Nc1ccc(OCC(F)(F)F)nc1)OCc1cccc(Oc2ccccc2)n1 [Compound 45] | > 25
57 | Cc1cc(N=C(OCc2cccc(Oc3ccccc3)c2)C(C)C)no1 [Compound 8] | > 25
58 | CC(C)C(=Nc1ccc(F)nc1)OCc1cccc(Oc2ccccc2)c1 [Compound 5] | > 25
59 | CSc1ccc(N=C(OCc2cccc(Oc3ccccc3)c2)C(C)C)cn1 [Compound 38] | > 25
60 | CC(C)C(=Nc1ccc2nc(-c3ccccc3)oc2c1)OCc1cccc(Oc2ccccc2)c1 [Compound 28] | > 25
61 | COC(=O)c1ccc(N=C(OCc2cccc(Oc3ccccc3)c2)C(C)C)o1 [Compound 14] | > 25
62 | CC(C)C(=Nc1cncc(C(F)(F)F)c1)OCc1ccc(F)c(Oc2ccc(Cl)cc2)c1 [Compound 37] | > 25
63 | CC(C)C(=Nc1ccc(Cl)nc1)OCc1cccc(Oc2ccccc2)c1 [Compound 1, N-(6-Chloro-3-pyridyl)-0-(3-phenoxybenzyl)isobutyrylimidate] | > 25
64 | CC(C)C(=Nc1ccc(Cl)nc1)SCc1cccc(Oc2ccc(F)cc2)c1 [Compound 29] | > 25
65 | CC(C)C(=Nc1ccc(OCC(F)(F)F)nc1)OCc1cccc(Oc2ccc(F)cc2)c1 [Compound 43] | > 25
66 | COc1ccc(N=C(OCc2cccc(Oc3ccccc3)c2)C(C)C)cn1 [Compound 3] | > 25

System: Musca domestica
Test: Housefly contact test, mortality after 48 hours
Assay type: in vivo, Housefly Musca domestica
Details: μg of the test compound per 25 female flies
Method: as §1
The test compound was diluted in acetone and aliquots pipetted onto the bottom of aluminum dishes. To ensure even spreading of the chemical on the bottom of the dishes, 1 ml of acetone containing 0.01% peanut oil was also added to each dish. After all solvents had evaporated, the dishes were placed in circular cardboard cages containing 25 female houseflies, 1-2 days old. The cages were covered on the bottom with cellophane and on the top with tulle netting, and each contained a sugar-water saturated cotton plug for maintenance of the flies. Mortality was recorded after 48 hours. Test levels ranged from 100 μg/25 female houseflies downward. The LC-50 value is expressed below in Table II under the heading "HF", in terms of μg of the test compound per 25 female flies.

Row | SMILES | LC50 HF [µg]
67 | CC(C)C(=Nc1ccc(OCC(F)(F)F)nc1)OCc1cccc(Oc2ccccc2)n1 [Compound 45] | < 100
68 | Cc1cc(N=C(OCc2cccc(Oc3ccccc3)c2)C(C)C)no1 [Compound 8] | > 100
69 | CC(C)C(=Nc1ccc(F)nc1)OCc1cccc(Oc2ccccc2)c1 [Compound 5] | 8
70 | CSc1ccc(N=C(OCc2cccc(Oc3ccccc3)c2)C(C)C)cn1 [Compound 38] | < 100
71 | CC(C)C(=Nc1ccc2nc(-c3ccccc3)oc2c1)OCc1cccc(Oc2ccccc2)c1 [Compound 28] | > 100
72 | COC(=O)c1ccc(N=C(OCc2cccc(Oc3ccccc3)c2)C(C)C)o1 [Compound 14] | > 100
73 | CC(C)C(=Nc1cncc(C(F)(F)F)c1)OCc1ccc(F)c(Oc2ccc(Cl)cc2)c1 [Compound 37] | 40
74 | CC(C)C(=Nc1ccc(Cl)nc1)OCc1cccc(Oc2ccccc2)c1 [Compound 1, N-(6-Chloro-3-pyridyl)-0-(3-phenoxybenzyl)isobutyrylimidate] | 5.5
75 | CC(C)C(=Nc1ccc(Cl)nc1)SCc1cccc(Oc2ccc(F)cc2)c1 [Compound 29] | > 100
76 | CC(C)C(=Nc1ccc(OCC(F)(F)F)nc1)OCc1cccc(Oc2ccc(F)cc2)c1 [Compound 43] | > 100
77 | COc1ccc(N=C(OCc2cccc(Oc3ccccc3)c2)C(C)C)cn1 [Compound 3] | 7
